These results are taken from ChEMBL document CHEMBL5113518, “Discovery of a Novel G-Quadruplex and Histone Deacetylase (HDAC) Dual-Targeting Agent for the Treatment of Triple-Negative Breast Cancer” (J Med Chem, 2022).

Series [1] concerns the target Quadruplex DNA. In words: Binding affinity to 5' FAM-labeled c-myc G4-quadruplex DNA Pu22 (unknown origin) assessed as dissociation constant by surface plasmon resonance assay. The format is nucleic-acid assay. Background: Surface plasmon resonance follows binding to a sensor surface in real time, without labels.
The target of series [2] is Quadruplex DNA. Kind of series: Binding affinity to 5' FAM-labeled c-myc G4-quadruplex DNA HTG21 (unknown origin) assessed as dissociation constant by surface plasmon resonance assay. The series is classed as nucleic-acid assay.
The target of a further series is T1, Histone deacetylase 8 (Homo sapiens, UniProt Q9BY41).
T1 sequence (Q9BY41 whole entry): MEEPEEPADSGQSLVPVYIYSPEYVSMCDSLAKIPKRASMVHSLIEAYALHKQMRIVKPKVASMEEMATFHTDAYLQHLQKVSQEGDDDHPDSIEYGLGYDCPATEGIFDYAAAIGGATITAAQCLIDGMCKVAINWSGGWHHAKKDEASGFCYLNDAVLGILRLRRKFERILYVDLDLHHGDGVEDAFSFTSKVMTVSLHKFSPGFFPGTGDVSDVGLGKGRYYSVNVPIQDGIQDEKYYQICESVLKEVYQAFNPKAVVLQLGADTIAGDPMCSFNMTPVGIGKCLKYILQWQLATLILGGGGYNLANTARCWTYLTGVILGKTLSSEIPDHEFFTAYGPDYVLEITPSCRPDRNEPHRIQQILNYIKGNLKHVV
In words: Inhibition of full length recombinant N-terminal GST-tagged human HDAC8 expressed in baculovirus infected Sf9 insect cells incubated for 50 mins by Glo- luminescence assay.

Series [3] has as its system MDA-MB-231. Kind of series: Effect on metabolism in human MDA-MB-231 cells assessed as oxygen consumption rate at 2.5 uM measured after 48 hrs by seahorse XF24 analysis. The series is classed as functional, cell-based.
Series [4] concerns MDA-MB-231. Kind of series: Inhibition of colony formation in human MDA-MB-231 cells measured for 7 days by crystal violet staining based assay. The series is classed as functional, cell-based. The following applies: dose 2.5 µM, time 7.0 day, DDE = dose-dependent effect.
A short description of series [5]: Toxicity in BALB/c-nu/nu mouse at 2.5 mg/kg, ip measured for 31 days. The series is classed as organism-based. The following applies: in vivo, 744 h, time 31 day.
The subject of series [6] is SUM-159-PT. In words: Induction of DNA damage in human SUM159PT at 1.25 to 5 uM assessed as increase in gamma-H2AX level and measured for 48 hrs by DAPI staining method. The following applies: dose 1.25-5 µM. The format is functional, cell-based.
A short description of series [7]: Inhibition of full length recombinant N-terminal GST-tagged human HDAC11 expressed in baculovirus infected Sf9 insect cells incubated for 50 mins by Glo- luminescence assay. The format is cell-based.
For series [8], the system named is Quadruplex DNA. The following applies: dose 1.0 µM.
Description: Binding affinity to 5' FAM and 3' TAMRA-labeled c-myc G4-quadruplex DNA Pu22 (unknown origin) assessed as change in melting temperature at 1 uM by fluorescence resonance energy transfer assay
The subject of series [9] is MDA-MB-231. In words: Antitumor activity against human MDA-MB-231 cells xenografted in BALB/c-nu/nu mouse assessed as reduction in tumor growth at 2.5 mg/kg, ip measured for 31 days. The following applies: time 31.0 day. The format is functional, organism-based.
Series [10] can be described thus: Stabilization of DNA Pu22 (unknown origin ) single strand assessed as G4-quadruplex formation in absence of potassium ions by spectrum based circular dichroism analysis. The following applies: dose <= 30.0 µM; DDE = dose-dependent effect.
The target in series [11] is T2, Histone deacetylase (Homo sapiens) (UniProt Q13547+O15379+Q9UBN7+Q92769+Q9UQL6+Q8WUI4+Q9BY41+Q96DB2+P56524+Q9UKV0+Q969S8). Kind of series: Inhibition of HDAC in human SUM159PT cells assessed as increase in acetylated alpha-tubulin level at 1.25 to 5 uM by Western blot analysis. The format is cell-based. The following applies: dose 1.25-5 µM. (A western blot detects proteins with antibodies after separation by electrophoresis.)

The target of another series is Histone deacetylase. In words: Inhibition of HDAC in human MDA-MB-231 cells incubated for 45 mins by luminescence assay. The series is classed as cell-based.
The subject of series [12] is SUM-159-PT. Kind of series: Cytotoxicity against human SUM159PT cells harboring wild type BRCA1 and wild type BRCA2 assessed as reduction in cell viability. The series is classed as functional, cell-based.
Series [13] relates to SUM-159-PT. Kind of series: Inhibition of colony formation in human SUM159PT cells measured for 7 days by crystal violet staining based assay. The format is functional, cell-based. The following applies: dose 2.5 µM, time 7.0 day, DDE = dose-dependent effect.
Series [14] concerns Quadruplex DNA. Kind of series: Binding affinity to 5' FAM and 3' TAMRA-labeled c-myc G4-quadruplex DNA duplex (unknown origin) assessed as change in melting temperature by fluorescence resonance energy transfer assay. The format is nucleic-acid assay.
The subject of series [15] is MDA-MB-231. Kind of series: Cytotoxicity against human MDA-MB-231 cells harboring wild type BRCA1 and wild BRCA2 assessed as reduction in cell viability. The format is functional, cell-based.
The test system of series [16] is MDA-MB-231. Kind of series: Antitumor activity against human MDA-MB-231 cells xenografted in BALB/c-nu/nu mouse assessed as tumor growth inhibition at 2.5 mg/kg, ip measured for 31 days. The series is classed as functional. The following applies: MDA-MB-231, 744 h, time 31 day, read-out: TGI. In general terms: Xenograft models place foreign cells or tissue in a host animal.

The nature of series [17]: Toxicity in BALB/c-nu/nu mouse assessed as toxic sign at 2.5 mg/kg, ip measured for 31 days. The series is classed as organism-based. The following applies: in vivo, 744 h, time 31 day.
Series [18] deals with T2, Histone deacetylase (Homo sapiens). Kind of series: Inhibition of HDAC in human BT-549 cells assessed as increase in acetylated alpha-tubulin level at 1.25 to 5 uM by Western blot analysis. The series is classed as cell-based. The following applies: dose 1.25-5 µM.
The next series concerns BT-549. Kind of series: Inhibition of colony formation in human BT-549 cells measured for 7 days by crystal violet staining based assay. The format is functional, cell-based. The following applies: dose 2.5 µM, time 7.0 day, DDE = dose-dependent effect.

Structures are written as SMILES. Active and inactive are the calls of the source. No cut-off for these calls is given here. Where only a bound is given, the exact number is not on record here.

For `CN(C)CCCNC(=O)c1ccc(/C=C2\CCn3c2nc2cc(N4CCN(CCCCCCCC(=O)NO)CC4)c(F)cc2c3=O)cc1.Cl`, the values for the Kd at Quadruplex DNA [1] and on Quadruplex DNA [2] were 1.6 µM and above 10 µM, respectively. The IC50 worked out at 0.03 µM on Histone deacetylase 8; 1.38 µM in [7]; 1.1 µM against Histone deacetylase; 7.4 µM with SUM-159-PT [12]; 4.1 µM with MDA-MB-231 [15]. Moreover, the outcome with MDA-MB-231 [3], in the series with SUM-159-PT [6] and with MDA-MB-231 [9] was Active. In addition, the inhibition result in the series with MDA-MB-231 [4], with SUM-159-PT [13] and in the series with BT-549 was “Dde” in each case. The Activity result is “Non-Toxic” in [5], “Dde” in series [10] and “Non-Toxic” in [17]. Moreover, the results for the shift in melting temperature (ΔTm) in the series with Quadruplex DNA [8] and in the series with Quadruplex DNA [14] were 16.7 °C and 0.1 °C, respectively. For the same molecule, the inhibition result in [11] and in series [18] was “Active” in each case. In the series with MDA-MB-231 [16], the inhibition in vivo at 2.5 mg/kg came out at 69%.

The Kd is a measure of binding affinity in units of concentration. The term IC50 denotes the concentration at which inhibition is half-maximal. A word on the ΔTm: it is the change in melting temperature against a reference sample.
